# Results published in US20090304712A1, “Neuronal Cell Death Inhibitor and Screening Method” (NATIONAL UNIVERSITY CORPORATION NAGOYA UNIVERSITY, priority 2006, published 2009).
# Key:
# [1] = tested on: mouse cerebral cortex primary neurons; assay: Neuritic beading degeneration in neurons incubated with activated microglia conditioned medium; type: cell-based; conditions: for number of neurons with neuritic beading degeneration: 24 h
# Protocol: (§1) Mouse primary microglia were isolated from primary mixed glial cell cultures (obtained from newborn C57BL/6J mice brains) by the ‘shaking off’ method on the 14th culture day or later (Suzumura, A. et al. MHC antigen expression on bulk isolated macrophage-microglia from newborn mouse brain: induction of 1a antigen expression by gamma-interferon. J. Neuroimmunol. 15, 263-278 (1987)).
# In addition, mouse cerebral cortex primary neurons were prepared from the cerebral cortices of C57BL/6J mice at embryonic 17th day, and were plated on poly-ethyleneimine (PEI)-coated cover slips. Neurons were used at 10th to 13th culture day (Takeuchi et al. Neuritic beading induced by activated microglia is an early feature of neuronal dysfunction toward neuronal death by inhibition of mitochondrial respiration and axonal transport. J. Biol. Chem. 280, 10444-10454 (2005)).
# (§2) Microglia were cultured with the culture medium (approximately 5×10^4 cells/well, Neuron Medium (manufactured by Sumitomo Bakelite Co., LTD.) administered with 1 μg/ml of LPS or 100 ng/ml of cytokines (IL-1β, IL-6, IL-10, IFN-γ, or TNF-α), respectively. Microglia were incubated under 100% humidity and 5% CO2 at 37° C. for 24 hours. Note that as a control, microglia were cultured similarly except that no cytokine was added.
# Neurons in a 24-well plate (5×10^4 cells/well) were incubated with 500 μl of conditioned medium of microglia activated as above. […]
# (§3) The various neurons obtained as above were cultured for 24 hours, then, neurons in each well were measured for both the number of neurons with neuritic beading degeneration and the number of dead neurons. […] The ratio of neurons with neuritic beading degeneration was calculated as a percentage of total neurons. Note that neurons in duplicate wells were assessed blindly in three independent trials. In addition, the number of dead neurons was assessed by the dye-exclusion method with propidium iodide (PI). […] The ratio of dead neurons was calculated as a percentage of PI-positive cells among total neurons.
# activated microglia = assay: Glutamate concentration in neuron culture medium (glutamate released from activated microglia), colorimetric assay; type: cell-based, mouse; conditions: 24 h; for extracellular glutamate concentration: versus no drug (TNF)
# Protocol: as §1, §2
# Neurons in a 24-well plate (5×10^4 cells/well) were incubated with 500 μl of conditioned medium of microglia activated as above. Neurons were administered similarly non-activated microglia conditioned medium to serve as a control for the indirect stimulation group. […]
# In the present example, the amount of glutamate released from microglia stimulated with various cytokines, intracellular ATP concentration and mitochondrial damage in neurons incubated with conditioned medium were measured. […]
# After incubation for 24 hours as above, the concentration of glutamate in the conditioned medium of each neuronal culture well was measured using Glutamate Assay Kit colorimetric assay (manufactured by Yamasa Corporation) according to the protocol thereof, measuring the absorption at 600 nm in a multiplate reader. […]
# The various neurons prepared as above were cultured for 24 hours, then, glutamate concentration, the numbers of neurons with neuritic beading degeneration and dead neurons were measured for neurons in each neuronal culture well. Quantification of glutamate concentration was carried out similarly to Example 2, measurements of the numbers of neurons with neuritic beading degeneration and dead neurons were carried out similarly to Example 1. […]
# [2] = tested on: mouse cerebral cortex primary neurons; assay: Neuronal intracellular ATP concentration, chemiluminescent method; type: cell-based; conditions: conditioned medium of microglia treated with 100 ng/ml TNF-α; 24 h
# Protocol: (§4) In the present example, the amount of glutamate released from microglia stimulated with various cytokines, intracellular ATP concentration and mitochondrial damage in neurons incubated with conditioned medium were measured. […] The evaluations were carried out by the following methods.
# After incubation of the various neurons obtaine for 24 hours as above, intracellular ATP in each neuronal culture well was measured using AposSENSOR Cell Viability Assay Kit (manufactured by Bio Vision) according to the protocol thereof, by the chemiluminescent method. ATP concentration was calculated as a percentage of control.
# [3] = tested on: mouse cerebral cortex primary neurons; assay: Neuronal mitochondrial damage, MTS assay; type: cell-based; conditions: conditioned medium of microglia treated with 100 ng/ml TNF-α; 24 h
# Protocol: as §4
# After incubation for 24 hours as above, the extent of neuronal mitochondria damage in each neuronal culture well was measured using CellTiter96 Aqueous One Solution assay (manufactured by Promega) according to the protocol, performing the MTS method, measuring the absorption at 490 nm in a multiplate reader. Note that the assays were carried out in six independent trials.
# connexin-32 (C×32) = assay: Microglial cell surface expression of connexin-32 by flow cytometry; type: cell-based, mouse; conditions: microglia stimulated with 100 ng/ml TNF-α, 24 h
# Protocol: In the present example, an analysis of LPS- or TNF-α-stimulated microglial cell surface expression of connexin-32 (C×32), which is a major constitutive component of gap junction, was carried out with a flow cytometer. The preparation of microglia was carried out similarly to Example 1, and microglia activation was carried out similarly to Example 4. To Detect C×32 anti-mouse C×32 antibody (manufactured by Chemicon) was used.
# [4] = tested on: mouse cerebral cortex primary neurons; assay: Dead neurons (propidium iodide dye-exclusion) in neurons incubated with activated microglia conditioned medium; type: cell-based; conditions: 24 h
# Protocol: as §1
# In addition, mouse cerebral cortex primary neurons were prepared from the cerebral cortices of C57BL/6J mice at embryonic 17th day, and were plated on poly-ethyleneimine (PEI)-coated cover slips. […]
# as §3
# [5] = tested on: ischemia-induced delayed neuronal cell death model; assay: Ischemia-induced delayed neuronal cell death model; type: in vivo, Mongolian gerbils; conditions: for delayed neuronal cell death (micrographs of hippocampal CA1, FIG. 15) / number of surviving neurons per 100 μm in the hippocampal CA1 region: 7 days after ischemia; for number of surviving neurons per 100 μm in the hippocampal CA1 region: p<0.001 versus control
# Protocol: In the present example, the effect of gap junction inhibitor and glutaminase inhibitor on neuronal cell death was evaluated using ischemia-induced delayed neuronal cell death model. Note that all protocols were approved by the Animal Experiment Committee of Nagoya University. Note that the animal model in the present example corresponds to a model of ischemic disorder, which is a nervous system disease.
# According to reference by Imai et al. (Imai F, Sawada M, Suzuki H, Zlokovic B V, Kojima J, Kuno S, Nagatsu T, Nitatori T, Uchiyama Y, Kanno T., Exogenous microglia enter the brain and migrate into ischemic hippocampal lesions. et al. Neuroscience Letter. 272 (2): 127-130. 1999)□ adult male Mongolian gerbils, 10-12 weeks old and weighing approximately 70 g, were anesthetized with sevoflurane maintaining rectal temperature at 37° C. Global forebrain ischemia was produced transiently by occluding both common carotid arteries for 5 minutes using aneurysm clips.
# Administration of the gap junction inhibitor carbenoxolone (CBX) was carried out in the following three groups. That is to say, the doses were 20 mg/kg body weight (CBX1), 2 mg/kg body weight (CBX1/10) and 0.2 mg/kg body weight (CBX1/100). Administration of the glutaminase inhibitor 6-diazo-5-oxo-L norleucine (DON) was carried out in the following three groups. That is to say, the doses were 1.6 mg/kg body weight (DON1), 0.16 mg/kg body weight (DON1/10) and 0.016 mg/kg body weight (DON1/100). CBX or DON was administered intraperitoneally every other day from the day of ischemia. Note that control animals were injected with the equal volume of phosphate-buffered saline (PBS).
# Seven days after ischemia, gerbils were anesthetized and transcardically perfused with 4% paraformaldehyde in PBS. The brains were removed, embedded in O.C.T. compound (manufactured by Sakura Finetech) and then frozen in liquid nitrogen. Frozen sections were prepared with a cryostat (8 μm thick), were mounted onto a slide glass and were stained with haematoxylin and eosin. To assess the effect of drug treatment on delayed neuronal death, the number of surviving neurons per 100 μm in the hippocampal CA1 region was counted under a microscope.
# [6] = tested on: experimental autoimmune encephalomyelitis (EAE) model; assay: MOG-induced experimental autoimmune encephalomyelitis (EAE) model; type: in vivo, C57BL/6J mice; conditions: for EAE onset day (EAE clinical score becomes 1 or greater) / number of severe sick days (EAE clinical score four or greater): p<0.05
# [7] = 1 mM DON with activated microglia conditioned medium
# [8] = DON 0.016, 0.16, 1.6 mg/kg i.p. every other day
# [9] = DON1: 1.6 mg/kg i.p. every other day
# [10] = 100 μM CBX with activated microglia conditioned medium
# [11] = CBX 0.2, 2, 20 mg/kg i.p. every other day
# [12] = CBX1/10: 2 mg/kg i.p. every other day
# Sequence of connexin-32 (C×32) (P28230 whole entry): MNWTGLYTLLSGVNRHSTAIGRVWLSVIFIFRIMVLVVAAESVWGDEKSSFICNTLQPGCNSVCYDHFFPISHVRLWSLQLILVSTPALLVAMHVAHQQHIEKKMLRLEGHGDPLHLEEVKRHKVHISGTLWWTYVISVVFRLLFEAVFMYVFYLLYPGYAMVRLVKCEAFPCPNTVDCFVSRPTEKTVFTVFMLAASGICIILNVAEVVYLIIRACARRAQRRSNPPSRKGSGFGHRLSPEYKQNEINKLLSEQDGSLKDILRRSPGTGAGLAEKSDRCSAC
compound,measurement,setting,value
TNF-α,ratio of neurons with neuritic beading degeneration as a percentage of total neurons,"[1]; indirect stimulation: conditioned medium of microglia treated with 100 ng/ml cytokine for 24 h, neurons cultured 24 h",approximately 100%
same,glutamate concentration in neuron culture medium,activated microglia; conditioned medium of microglia treated with 100 ng/ml TNF-α,significantly high concentration
same,neuronal intracellular ATP concentration,[2],significantly low
same,extent of mitochondrial damage (MTS),[3],significantly mild
same,expression of gap junction (C×32) onto the cell surface of microglia,connexin-32 (C×32),augmented
"[N-]=[N+]=CC(=O)CC[C@H](N)C(=O)O [DON, 6-diazo-5-oxo-L-norleucine]",number of neurons with neuritic beading degeneration,[1]; [7],inhibitory action
same,number of dead neurons,[4]; [7],inhibitory action
same,extracellular glutamate concentration,activated microglia; [7],reduced to the control level
same,"delayed neuronal cell death (micrographs of hippocampal CA1, FIG. 15)","[5]; DON 0.016, 0.16, 1.6 mg/kg body weight i.p. every other day from day of ischemia",clearly inhibited
same,dose dependence of decrease in neuronal death,[5]; [8],dose-dependent manner
same,number of surviving neurons per 100 μm in the hippocampal CA1 region,[5]; [8],significantly protected
same,"EAE clinical symptoms (clinical score course, FIG. 17)","[6]; DON 0.016, 0.16, 1.6 mg/kg i.p. every other day from day of immunization",inhibited
same,EAE onset day (EAE clinical score becomes 1 or greater),[6]; [9],significantly delayed
same,number of severe sick days (EAE clinical score four or greater),[6]; [9],significantly reduced
"CC1(C)[C@@H](OC(=O)CCC(=O)O)CC[C@]2(C)[C@H]3C(=O)C=C4[C@@H]5C[C@@](C)(C(=O)O)CC[C@]5(C)CC[C@@]4(C)[C@]3(C)CC[C@@H]12 [CBX, carbenoxolone disodium]",number of neurons with neuritic beading degeneration,[1]; [10],inhibitory action
same,number of dead neurons,[4]; [10],inhibitory action
same,extracellular glutamate concentration,activated microglia; [10],reduced to the control level
same,"delayed neuronal cell death (micrographs of hippocampal CA1, FIG. 15)","[5]; CBX 0.2, 2, 20 mg/kg body weight i.p. every other day from day of ischemia",clearly inhibited
same,dose dependence of decrease in neuronal death,[5]; [11],dose-dependent manner
same,number of surviving neurons per 100 μm in the hippocampal CA1 region,[5]; [11],significantly protected
same,"EAE clinical symptoms (clinical score course, FIG. 17)","[6]; CBX 0.2, 2, 20 mg/kg i.p. every other day from day of immunization",inhibited
same,peak clinical score,[6]; [12],significantly decreased
same,EAE onset day (EAE clinical score becomes 1 or greater),[6]; [12],significantly delayed
same,number of severe sick days (EAE clinical score four or greater),[6]; [12],significantly reduced
